In BindingDB's records for doi:10.1073/pnas.89.8.3630 (Synaptic Pharmaceutical, 1992) one finds Ki data, which are given here for 10 molecules.

A value given as a limit tells only on which side of the number the result lay.

In assay [1] the target is 5-hydroxytryptamine receptor 1D (Homo sapiens, UniProt P28221).
Assay [2] concerns the target 5-hydroxytryptamine receptor 1B (Homo sapiens, UniProt P28222).

Sequence of 5-hydroxytryptamine receptor 1B (P28222 whole entry): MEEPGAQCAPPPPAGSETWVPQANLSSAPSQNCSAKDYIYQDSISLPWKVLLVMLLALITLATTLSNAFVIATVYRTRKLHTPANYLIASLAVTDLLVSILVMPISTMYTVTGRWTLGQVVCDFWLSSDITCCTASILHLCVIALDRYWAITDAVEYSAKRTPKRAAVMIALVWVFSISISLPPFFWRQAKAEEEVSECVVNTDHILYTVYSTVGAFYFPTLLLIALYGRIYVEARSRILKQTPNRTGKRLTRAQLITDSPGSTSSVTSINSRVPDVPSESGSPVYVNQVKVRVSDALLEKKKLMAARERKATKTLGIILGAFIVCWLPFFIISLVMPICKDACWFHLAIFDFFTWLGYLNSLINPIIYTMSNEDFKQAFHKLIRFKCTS
Sequence of 5-hydroxytryptamine receptor 1D (P28221 whole entry): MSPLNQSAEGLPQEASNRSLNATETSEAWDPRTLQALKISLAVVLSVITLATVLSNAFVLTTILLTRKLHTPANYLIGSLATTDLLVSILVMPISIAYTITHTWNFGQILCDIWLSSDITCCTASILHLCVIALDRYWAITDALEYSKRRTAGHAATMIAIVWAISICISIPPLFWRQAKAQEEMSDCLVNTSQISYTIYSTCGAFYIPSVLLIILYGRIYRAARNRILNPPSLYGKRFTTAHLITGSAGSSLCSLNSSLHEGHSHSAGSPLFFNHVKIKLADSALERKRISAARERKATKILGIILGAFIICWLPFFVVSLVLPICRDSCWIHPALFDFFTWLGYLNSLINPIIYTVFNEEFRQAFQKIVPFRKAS

The term Ki denotes a measure of affinity in units of concentration, obtained from inhibition or displacement. Read a high Ki as lower affinity. As to `c1ccc2c(N3CCNCC3)cccc2c1`, the Ki in assay [1] stood at 12 nM.
Turning to `Cc1[nH]c2ccc(O)cc2c1CCN`, the figures for the Ki in assay [2] and in assay [1] were 915 nM and 860 nM, respectively.
The matching figures for `CN1C[C@H](CO)C=C2c3cccc4[nH]cc(c34)C[C@H]21`: 0.63 nM and 1.19 nM.
The matching figures for `CC[C@@H](CO)NC(=O)[C@@H]1C=C2c3cccc4c3c(cn4C)C[C@H]2N(C)C1`: 3.6 nM and 25 nM.
The matching figures for `c1ccc2nc(N3CCNCC3)ccc2c1` [2-Piperazin-1-yl-quinoline (Quipazine)]: 1000 nM and 1000 nM.
`O=C(CCCN1CCC2(CC1)C(=O)NCN2c1ccccc1)c1ccc(F)cc1` [8-[4-(4-fluorophenyl)-4-oxidanylidene-butyl]-1-phenyl-1,3,8-triazaspiro[4.5]decan-4-one]: the Ki in assay [2] was 995 nM; in assay [1], > 10000 nM.
The matching figures for `CC(C)NCC(O)COc1cccc2[nH]ccc12` (centres undefined) [LB-46]: 4100 nM and 4900 nM.
For `CCCN(CCC)CCc1c[nH]c2ccc(C(N)=O)cc12` [NN-DIPROP-5-CT], the values for the inhibition constant Ki in assay [2] and in assay [1] were 13 nM and 42 nM, respectively.
As for `COc1cc(N)c(Cl)cc1C(=O)NC1CN2CCC1CC2` (centres undefined) [ZACOPRIDE,R], the Ki in assay [2] and in assay [1] was > 10000 nM throughout.
For the molecule `Clc1cccc(N2CCNCC2)c1` [mCPP], the Ki in assay [2] came to 216 nM; in assay [1], 361 nM.
